Measurements reported in patent publication US20230085307A1, “PYRIDAZINONE COMPOUND AND HERBICIDE” (NISSAN CHEMICAL CORPORATION, priority 2019, published 2023).

Assays:
oval-leafed pondweed = assay: Test Example 1: herbicidal activity, application before weed generation under submerged conditions (Table 16, symbol C); type: in vivo, oval-leafed pondweed (Monochoria vaginalis); details: 320 g/ha applied herbicide
In short: (§1)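 Alluvial soil was flooded to 4 cm depth, weed seeds were sown mixed and 2.5-leaf rice seedlings were transplanted. On sowing day, the compound's emulsion, diluted in water to a set dose, was applied to the water surface. Plants grew at 25–30 °C and were scored 0–5 after three weeks.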

velvetleaf [1] = assay: Test Example 4: herbicidal effect by soil treatment (Table 19, symbol M); type: in vivo, velvetleaf (Abutilon theophrasti); details: amount of applied herbicide 320 g/ha
In short: (§2)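 Seeds were sown in sterilized diluvial soil and covered with about 1.5 cm of soil. An emulsion formulation diluted with water to a predetermined herbicide amount was sprayed evenly onto the soil surface. Plants grew in a greenhouse at 25° C. to 30° C., and the effect was scored three weeks after application using criteria from an earlier test.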

chickweed [2] = assay: Test Example 4: herbicidal effect by soil treatment (Table 19, symbol P); type: in vivo, common chickweed (Stellaria media); details: amount of applied herbicide 320 g/ha
In short: as §2

Italian ryegrass [3] = assay: Test Example 4: herbicidal effect by soil treatment (Table 19, symbol K); type: in vivo, Italian ryegrass (Lolium multiflorum); details: amount of applied herbicide 320 g/ha
In short: as §2

redroot pigweed [4] = assay: Test Example 5: herbicidal effect by foliage application, plastic box (Table 20, symbol N); type: in vivo, redroot pigweed (Amaranthus retroflexus); details: foliage application, AAH 320 g/ha, evaluated three weeks after application
In short: (§3)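 Plants sown in sterilized diluvial soil and grown 14 days in a greenhouse at 25° C to 30° C, then sprayed on the foliage with the compound's emulsion diluted in water to a predetermined herbicide amount. Injury to weeds and crops scored three weeks after application on a visual rating scale.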

blackgrass [5] = assay: Test Example 4: herbicidal effect by soil treatment (Table 19, symbol J); type: in vivo, blackgrass (Alopecurus myosuroides); details: amount of applied herbicide 320 g/ha
In short: as §2

persian speedwell [6] = assay: Test Example 5: herbicidal effect by foliage application, plastic box (Table 20, symbol R); type: in vivo, Persian speedwell (Veronica persica); details: foliage application, AAH 320 g/ha, evaluated three weeks after application
In short: as §3

green foxtail [7] = assay: Test Example 4: herbicidal effect by soil treatment (Table 19, symbol G); type: in vivo, green foxtail (Setaria viridis); details: amount of applied herbicide 320 g/ha
In short: as §2

persian speedwell [8] = assay: Test Example 4: herbicidal effect by soil treatment (Table 19, symbol R); type: in vivo, Persian speedwell (Veronica persica); details: amount of applied herbicide 320 g/ha
In short: as §2

Japanese bulrush = assay: Test Example 1: herbicidal activity, application before weed generation under submerged conditions (Table 16, symbol B); type: in vivo, Japanese bulrush (Schoenoplectus juncoides); details: 320 g/ha applied herbicide
In short: as §1

late watergrass = assay: Test Example 1: herbicidal activity, application before weed generation under submerged conditions (Table 16, symbol A); type: in vivo, late watergrass (Echinochloa oryzicola); details: 320 g/ha applied herbicide
In short: as §1

southern crabgrass [9] = assay: Test Example 5: herbicidal effect by foliage application, plastic box (Table 20, symbol F); type: in vivo, southern crabgrass (Digitaria ciliaris); details: foliage application, AAH 320 g/ha, evaluated three weeks after application
In short: as §3

barnyard grass [10] = assay: Test Example 4: herbicidal effect by soil treatment (Table 19, symbol H); type: in vivo, barnyard grass (Echinochloa crus-galli); details: amount of applied herbicide 320 g/ha
In short: as §2

wild oat [11] = assay: Test Example 5: herbicidal effect by foliage application, plastic box (Table 20, symbol I); type: in vivo, wild oat (Avena fatua); details: foliage application, AAH 320 g/ha, evaluated three weeks after application
In short: as §3

green foxtail [12] = assay: Test Example 5: herbicidal effect by foliage application, plastic box (Table 20, symbol G); type: in vivo, green foxtail (Setaria viridis); details: foliage application, AAH 320 g/ha, evaluated three weeks after application
In short: as §3

wild oat [13] = assay: Test Example 4: herbicidal effect by soil treatment (Table 19, symbol I); type: in vivo, wild oat (Avena fatua); details: amount of applied herbicide 320 g/ha
In short: as §2

barnyard grass [14] = assay: Test Example 3: herbicidal effect by foliage application, Wagner pot (Table 18, symbol H); type: in vivo, barnyard grass (Echinochloa crus-galli); details: amount of applied herbicide 320 g/ha
In short: (§4)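 Plants were sown in alluvial soil held under 0.1–0.5 cm standing water and grown 14 days in a greenhouse at 25–30 °C. An emulsifiable formulation, water-diluted to the set dose, was then sprayed onto the foliage, and effects were scored three weeks later using previously defined criteria.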

chickweed [15] = assay: Test Example 5: herbicidal effect by foliage application, plastic box (Table 20, symbol P); type: in vivo, common chickweed (Stellaria media); details: foliage application, AAH 320 g/ha, evaluated three weeks after application
In short: as §3

lambsquarters [16] = assay: Test Example 4: herbicidal effect by soil treatment (Table 19, symbol O); type: in vivo, lambsquarters (Chenopodium album); details: amount of applied herbicide 320 g/ha
In short: as §2

redroot pigweed [17] = assay: Test Example 4: herbicidal effect by soil treatment (Table 19, symbol N); type: in vivo, redroot pigweed (Amaranthus retroflexus); details: amount of applied herbicide 320 g/ha
In short: as §2

blackgrass [18] = assay: Test Example 5: herbicidal effect by foliage application, plastic box (Table 20, symbol J); type: in vivo, blackgrass (Alopecurus myosuroides); details: foliage application, AAH 320 g/ha, evaluated three weeks after application
In short: as §3

barnyard grass [19] = assay: Test Example 5: herbicidal effect by foliage application, plastic box (Table 20, symbol H); type: in vivo, barnyard grass (Echinochloa crus-galli); details: foliage application, AAH 320 g/ha, evaluated three weeks after application
In short: as §3

Chinese sprangletop = assay: Test Example 3: herbicidal effect by foliage application, Wagner pot (Table 18, symbol D); type: in vivo, chinese sprangletop (Leptochloa chinensis); details: amount of applied herbicide 320 g/ha
In short: as §4

velvetleaf [20] = assay: Test Example 5: herbicidal effect by foliage application, plastic box (Table 20, symbol M); type: in vivo, velvetleaf (Abutilon theophrasti); details: foliage application, AAH 320 g/ha, evaluated three weeks after application
In short: as §3

Italian ryegrass [21] = assay: Test Example 5: herbicidal effect by foliage application, plastic box (Table 20, symbol K); type: in vivo, Italian ryegrass (Lolium multiflorum); details: foliage application, AAH 320 g/ha, evaluated three weeks after application
In short: as §3

windgrass [22] = assay: Test Example 4: herbicidal effect by soil treatment (Table 19, symbol L); type: in vivo, windgrass (Apera spica-venti); details: amount of applied herbicide 320 g/ha
In short: as §2

southern crabgrass [23] = assay: Test Example 4: herbicidal effect by soil treatment (Table 19, symbol F); type: in vivo, southern crabgrass (Digitaria ciliaris); details: amount of applied herbicide 320 g/ha
In short: as §2

rice flat sedge = assay: Test Example 3: herbicidal effect by foliage application, Wagner pot (Table 18, symbol E); type: in vivo, rice flat sedge (Cyperus iria); details: amount of applied herbicide 320 g/ha
In short: as §4

windgrass [24] = assay: Test Example 5: herbicidal effect by foliage application, plastic box (Table 20, symbol L); type: in vivo, windgrass (Apera spica-venti); details: foliage application, AAH 320 g/ha, evaluated three weeks after application
In short: as §3

lambsquarters [25] = assay: Test Example 5: herbicidal effect by foliage application, plastic box (Table 20, symbol O); type: in vivo, lambsquarters (Chenopodium album); details: foliage application, AAH 320 g/ha, evaluated three weeks after application
In short: as §3

Cc1nn(C)c(=O)c(-c2c(-c3ccc([S+](C)[O-])cc3)sc3ccc(F)cc23)c1O (stereo not drawn) [2-256]
Herbicidal effect on C: oval-leafed pondweed (grade 0-5) (oval-leafed pondweed): 0 (Herbicidal rate of 5% or less (almost no effect))
herbicidal effect on M: velvetleaf (velvetleaf [1]): 0 (Herbicidal rate of 5% or less (almost no effect))
herbicidal effect on P: chickweed (chickweed [2]): 3 (Herbicidal rate of 40% or more and less than 70%)
herbicidal effect on K: Italian ryegrass (Italian ryegrass [3]): 3 (Herbicidal rate of 40% or more and less than 70%)
N: redroot pigweed, herbicidal effect (criteria 0-5) (redroot pigweed [4]): 5 (Herbicidal rate of 90% or more (almost completely withered))
herbicidal effect on J: blackgrass (blackgrass [5]): 0 (Herbicidal rate of 5% or less (almost no effect))
R: persian speedwell, herbicidal effect (criteria 0-5) (persian speedwell [6]): 5 (Herbicidal rate of 90% or more (almost completely withered))
herbicidal effect on G: green foxtail (green foxtail [7]): 0 (Herbicidal rate of 5% or less (almost no effect))
herbicidal effect on R: persian speedwell (persian speedwell [8]): 4 (Herbicidal rate of 70% or more and less than 90%)
Herbicidal effect on B: Japanese bulrush (grade 0-5) (Japanese bulrush): 0 (Herbicidal rate of 5% or less (almost no effect))
Herbicidal effect on A: late watergrass (grade 0-5) (late watergrass): 2 (Herbicidal rate of 20% or more and less than 40%)
F: southern crabgrass, herbicidal effect (criteria 0-5) (southern crabgrass [9]): 4 (Herbicidal rate of 70% or more and less than 90%)
herbicidal effect on H: barnyard grass (barnyard grass [10]): 0 (Herbicidal rate of 5% or less (almost no effect))
I: wild oat, herbicidal effect (criteria 0-5) (wild oat [11]): 5 (Herbicidal rate of 90% or more (almost completely withered))
G: green foxtail, herbicidal effect (criteria 0-5) (green foxtail [12]): 3 (Herbicidal rate of 40% or more and less than 70%)
herbicidal effect on I: wild oat (wild oat [13]): 1 (Herbicidal rate of 5% or more and less than 20%)
herbicidal effect on H: barnyard grass (barnyard grass [14]): 5 (Herbicidal rate of 90% or more (almost completely withered))
P: chickweed, herbicidal effect (criteria 0-5) (chickweed [15]): 5 (Herbicidal rate of 90% or more (almost completely withered))
herbicidal effect on O: lambsquarters (lambsquarters [16]): 0 (Herbicidal rate of 5% or less (almost no effect))
herbicidal effect on N: redroot pigweed (redroot pigweed [17]): 3 (Herbicidal rate of 40% or more and less than 70%)
J: blackgrass, herbicidal effect (criteria 0-5) (blackgrass [18]): 3 (Herbicidal rate of 40% or more and less than 70%)
H: barnyard grass, herbicidal effect (criteria 0-5) (barnyard grass [19]): 1 (Herbicidal rate of 5% or more and less than 20%)
herbicidal effect on D: Chinese sprangletop (Chinese sprangletop): 4 (Herbicidal rate of 70% or more and less than 90%)
M: velvetleaf, herbicidal effect (criteria 0-5) (velvetleaf [20]): 4 (Herbicidal rate of 70% or more and less than 90%)
K: Italian ryegrass, herbicidal effect (criteria 0-5) (Italian ryegrass [21]): 5 (Herbicidal rate of 90% or more (almost completely withered))
herbicidal effect on L: windgrass (windgrass [22]): 0 (Herbicidal rate of 5% or less (almost no effect))
herbicidal effect on F: southern crabgrass (southern crabgrass [23]): 0 (Herbicidal rate of 5% or less (almost no effect))
herbicidal effect on E: rice flat sedge (rice flat sedge): 4 (Herbicidal rate of 70% or more and less than 90%)
L: windgrass, herbicidal effect (criteria 0-5) (windgrass [24]): 5 (Herbicidal rate of 90% or more (almost completely withered))
O: lambsquarters, herbicidal effect (criteria 0-5) (lambsquarters [25]): 5 (Herbicidal rate of 90% or more (almost completely withered))
